Test results published in patent US10676462B2, “Quinoline derivative” (ONO PHARMACEUTICAL CO., LTD., priority 2013, dated 2020).

Target: T1, Human CYP2C8 (Homo sapiens, UniProt P10632)
T1 construct: E. coli-expressed liver microsome CYP2C8 (Cypex, 30 μmol/L); purchased Cypex; host or cells: E. coli
T1 sequence (P10632 1-490): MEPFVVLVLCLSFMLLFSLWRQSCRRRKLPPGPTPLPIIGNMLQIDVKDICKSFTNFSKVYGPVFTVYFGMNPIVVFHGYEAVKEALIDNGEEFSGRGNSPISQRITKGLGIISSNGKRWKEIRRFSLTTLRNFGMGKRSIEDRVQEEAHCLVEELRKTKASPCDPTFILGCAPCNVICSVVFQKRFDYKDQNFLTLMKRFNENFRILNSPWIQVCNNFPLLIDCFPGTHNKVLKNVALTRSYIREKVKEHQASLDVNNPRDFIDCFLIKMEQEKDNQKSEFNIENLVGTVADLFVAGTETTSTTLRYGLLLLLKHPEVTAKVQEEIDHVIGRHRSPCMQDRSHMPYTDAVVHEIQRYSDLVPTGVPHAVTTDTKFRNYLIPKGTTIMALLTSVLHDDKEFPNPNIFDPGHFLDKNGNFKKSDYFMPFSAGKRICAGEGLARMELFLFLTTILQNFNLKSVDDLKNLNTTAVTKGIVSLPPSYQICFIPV
Assay: Inhibitory activity of drug-metabolizing enzyme (human CYP2C8 inhibition effect)
Assay type: in vitro ADME
Conditions: E. coli-expressed CYP2C8, substrate Luciferin-ME, from inhibition rates at 1 and 10 μmol/L
Procedure: Biological Example 4: Measurement of Inhibitory Activity of Drug-Metabolizing Enzyme (Human CYP2C8 Inhibition Effect)
The reaction was carried out in a 384-well plate. As the positive control substance (CYP2C8: quercetin), a solution, which had been adjusted with DMSO to have 300 times higher concentration than the final concentration (CYP2C8: 22.5 and 225 μmol/L) and been 75-fold diluted with purified water containing 2.7% acetonitrile, was prepared (CYP2C8: 0.3 and 3 μmol/L). The test compounds were prepared to have a concentration of […] with DMSO, and then 75-fold diluted with purified water containing 2.7% acetonitrile to be 4 and 40 μmol/L. Then, a reaction mixture solution was prepared by addition of a potassium phosphate buffer (pH 7.4), magnesium chloride ([…]), substrate (CYP2C8: Luciferin-ME, 150 μmol/L), and E. coli-expressed liver microsome CYP2C8 (Cypex, 30 μmol/L) (the numerical values are final concentrations). The reaction was started by addition of 8 μL of this reaction mixture, 4 μL each of the test compound and the positive control solution which had been prepared as described above, and 4 μL of NADPH production system solution (5.2 mM NADP, 13.2 mM glucose-6-phosphate, 1.6 U/mL glucose-6-phosphate dehydrogenase) and incubation was carried out at 37° C. for 30 min. Thereafter, 16 μL of luciferase solution was added to stop the reaction and to allow luciferin to emit light, and the luminescence intensity of the reaction solution was measured. The inhibition rate is a reduction rate (inhibition rate) of the luminescence intensity when compared with the control in which the reaction was carried out by the addition of DMSO in place of the test compound solution. The inhibition rate was calculated from the following mathematical formula. Inhibition rate (%)=100−{(luminescence intensity of test compound−background luminescence intensity)/(luminescence intensity of control−background luminescence intensity)×100} [Math. 3]
The IC50 value was defined to be <1 μM when the inhibition rate at 1 μmol/L was not less than 50%; and >10 μM when the inhibition rate at 10 μmol/L was not more than 50%. The range between the above-mentioned range (not more than 50% at 1 μmol/L and not less than 50% at 10 μmol/L) was calculated using the following mathematical formula: IC50=(50−b)/a [Math.4] wherein a and b are the slope and intercept of the linear regression line: y=ax+b that passes through the two points: the concentration and the inhibition rate at 1 μmol/L and the concentration and the inhibition rate at 10 μmol/L.
The IC50 values of the comparative compounds and compounds of the present invention were measured using the measurement method described above.

SMILES: COc1cc2nccc(Oc3ccc(NC(=O)c4cc5c(n(-c6ccccc6)c4=O)CC(C)(C)CC5=O)nc3)c2cc1OC [Example 5(1), N-{5-[(6,7-dimethoxy-4-quinolinyl)oxy]-2-pyridinyl}-7,7-dimethyl-2,5-dioxo-1-phenyl-1,2,5,6,7,8-hexahydro-3-quinolinecarboxamide]
- IC50: > 10 µM

SMILES: COc1cc2nccc(Oc3ccc(NC(=O)c4cc5c(n(-c6ccccc6)c4=O)CCCC5=O)nc3)c2cc1OC [Example 5, N-{5-[(6,7-dimethoxy-4-quinolinyl)oxy]-2-pyridinyl}-2,5-dioxo-1-phenyl-1,2,5,6,7,8-hexahydro-3-quinolinecarboxamide]
- IC50: > 10 µM

SMILES: O=C1CCCc2c1cc(C(=O)Nc1ccc(Oc3ccnc4cc(OCCCN5CCOCC5)ccc34)cn1)c(=O)n2-c1ccccc1 [Example 17(2), N-[5-({7-[3-(4-morpholinyl)propoxy]-4-quinolinyl}oxy)-2-pyridinyl]2,5-dioxo-1-phenyl-1,2,5,6,7,8-hexahydro-3-quinolinecarboxamide]
- IC50: > 10 µM

SMILES: COc1cc2nccc(Oc3ccc(NC(=O)c4cc5c(n(-c6ccccc6)c4=O)CCCC5=O)c(C)c3)c2cc1OC [Example 23(2), N-{4-[(6,7-dimethoxy-4-quinolinyl)oxy]-2-methylphenyl}-2,5-dioxo-1-phenyl-1,2,5,6,7,8-hexahydro-3-quinolinecarboxamide]
- IC50: > 10 µM
